No end group written: not given here.
Experiments:
[1] = target: T1, NTR1 (Homo sapiens, UniProt P30989); experiment: UV crosslinking of ^125I-(4-azido-Phe^6)-NT into immunoprecipitated NTR1 of PC3 cells; type: binding; parameters: Ab-NTR1 detected two major bands in extracts of PC3 cells, the parent protein of 50 kDa; endogenous in cells; host or cells: PC3 cells (ATCC); conditions: 50 μM agent
[2] = target: T2, EGF receptor (Homo sapiens, UniProt P00533); experiment: ^125I-EGF binding to PC3 cells; conditions: PC3 cells (text to Table 9)
T2 construct: endogenous in cells; host or cells: PC3 cells (ATCC)
T2 sequence (P00533 25-1210): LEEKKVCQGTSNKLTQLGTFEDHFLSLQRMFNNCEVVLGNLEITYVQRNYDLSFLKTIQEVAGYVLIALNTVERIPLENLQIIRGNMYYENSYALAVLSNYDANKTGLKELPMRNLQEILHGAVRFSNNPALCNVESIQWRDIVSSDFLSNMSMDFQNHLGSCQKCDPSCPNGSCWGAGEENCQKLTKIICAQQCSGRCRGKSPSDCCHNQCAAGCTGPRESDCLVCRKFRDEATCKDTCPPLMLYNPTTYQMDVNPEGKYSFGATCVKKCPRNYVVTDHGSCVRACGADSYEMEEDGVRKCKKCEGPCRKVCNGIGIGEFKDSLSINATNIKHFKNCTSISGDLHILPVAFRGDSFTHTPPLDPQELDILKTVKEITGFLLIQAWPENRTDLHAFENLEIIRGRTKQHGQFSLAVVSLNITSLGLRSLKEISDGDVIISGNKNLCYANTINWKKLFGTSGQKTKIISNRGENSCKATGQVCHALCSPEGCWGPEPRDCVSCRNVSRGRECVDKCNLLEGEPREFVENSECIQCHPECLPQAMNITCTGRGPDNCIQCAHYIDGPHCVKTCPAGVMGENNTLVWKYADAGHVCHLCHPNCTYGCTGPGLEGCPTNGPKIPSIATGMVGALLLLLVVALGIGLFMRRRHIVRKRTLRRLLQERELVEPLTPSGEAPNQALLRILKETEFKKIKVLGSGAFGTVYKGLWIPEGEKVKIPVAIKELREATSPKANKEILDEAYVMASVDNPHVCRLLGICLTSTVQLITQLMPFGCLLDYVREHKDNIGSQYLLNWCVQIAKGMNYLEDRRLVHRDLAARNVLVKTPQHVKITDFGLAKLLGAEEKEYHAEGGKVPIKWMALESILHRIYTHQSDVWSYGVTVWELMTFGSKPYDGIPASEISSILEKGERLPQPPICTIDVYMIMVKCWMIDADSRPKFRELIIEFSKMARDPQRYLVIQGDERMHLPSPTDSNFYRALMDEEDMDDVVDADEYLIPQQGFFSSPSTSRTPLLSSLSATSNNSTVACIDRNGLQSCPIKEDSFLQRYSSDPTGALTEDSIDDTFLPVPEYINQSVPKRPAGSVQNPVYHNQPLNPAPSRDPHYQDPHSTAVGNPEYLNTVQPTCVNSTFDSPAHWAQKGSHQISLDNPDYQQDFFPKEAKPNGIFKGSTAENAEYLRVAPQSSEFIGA

[3] = target: T3, 5-LOX (Homo sapiens, UniProt P09917); conditions: range of reported values, various blood cell systems; cited from earlier work
T3 sequence (P09917 1-674): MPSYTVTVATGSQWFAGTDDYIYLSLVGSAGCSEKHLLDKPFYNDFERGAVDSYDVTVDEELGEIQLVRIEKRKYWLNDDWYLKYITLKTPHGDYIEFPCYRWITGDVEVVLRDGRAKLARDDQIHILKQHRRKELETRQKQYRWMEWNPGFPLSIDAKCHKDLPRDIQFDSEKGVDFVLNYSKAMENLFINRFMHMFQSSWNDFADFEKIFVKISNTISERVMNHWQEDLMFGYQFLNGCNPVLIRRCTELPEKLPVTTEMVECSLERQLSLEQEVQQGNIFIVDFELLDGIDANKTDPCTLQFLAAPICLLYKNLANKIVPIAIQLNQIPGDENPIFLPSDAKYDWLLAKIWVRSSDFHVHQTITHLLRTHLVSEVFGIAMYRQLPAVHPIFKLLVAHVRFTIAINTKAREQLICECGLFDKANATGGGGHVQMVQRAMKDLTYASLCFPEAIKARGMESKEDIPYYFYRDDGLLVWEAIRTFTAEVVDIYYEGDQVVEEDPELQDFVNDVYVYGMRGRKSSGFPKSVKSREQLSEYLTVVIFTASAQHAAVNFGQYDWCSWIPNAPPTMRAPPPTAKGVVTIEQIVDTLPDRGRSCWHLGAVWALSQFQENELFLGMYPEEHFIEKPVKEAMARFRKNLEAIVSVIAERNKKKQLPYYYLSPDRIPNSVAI

[4] = target: T1, NTR1; experiment: ^125I-NT binding to isolated PC3 cell membranes; parameters: Ab-NTR1 detected two major bands in extracts of PC3 cells, the parent protein of 50 kDa; endogenous in cells; host or cells: PC3 cells (ATCC)
[5] = target: T4, bombesin receptor (Homo sapiens, UniProt P30550); experiment: ^125I-[Nle^14]-bombesin binding to PC3 cells; conditions: 37° C.
T4 construct: endogenous in cells; host or cells: PC3 cells (ATCC)
T4 sequence (P30550 whole entry): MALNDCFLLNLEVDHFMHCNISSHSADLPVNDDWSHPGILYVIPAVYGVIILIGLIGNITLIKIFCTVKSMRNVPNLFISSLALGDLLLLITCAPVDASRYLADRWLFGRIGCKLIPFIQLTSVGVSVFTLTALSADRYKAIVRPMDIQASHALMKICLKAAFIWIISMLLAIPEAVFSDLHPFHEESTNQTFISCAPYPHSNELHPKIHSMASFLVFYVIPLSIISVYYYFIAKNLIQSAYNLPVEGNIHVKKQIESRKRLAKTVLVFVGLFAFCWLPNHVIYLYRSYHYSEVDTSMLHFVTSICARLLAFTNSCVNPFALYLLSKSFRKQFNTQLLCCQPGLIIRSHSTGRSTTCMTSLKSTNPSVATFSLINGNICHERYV

[6] = target: T1, NTR1; experiment: ^125I-NT binding to PC3 cells
[7] = target: neurotensin-1 receptor (NTR1) (Homo sapiens, UniProt P30989); conditions: read-out: binding affinity; cited from earlier work
Chain of neurotensin-1 receptor (NTR1) (P30989 whole entry, species assumed): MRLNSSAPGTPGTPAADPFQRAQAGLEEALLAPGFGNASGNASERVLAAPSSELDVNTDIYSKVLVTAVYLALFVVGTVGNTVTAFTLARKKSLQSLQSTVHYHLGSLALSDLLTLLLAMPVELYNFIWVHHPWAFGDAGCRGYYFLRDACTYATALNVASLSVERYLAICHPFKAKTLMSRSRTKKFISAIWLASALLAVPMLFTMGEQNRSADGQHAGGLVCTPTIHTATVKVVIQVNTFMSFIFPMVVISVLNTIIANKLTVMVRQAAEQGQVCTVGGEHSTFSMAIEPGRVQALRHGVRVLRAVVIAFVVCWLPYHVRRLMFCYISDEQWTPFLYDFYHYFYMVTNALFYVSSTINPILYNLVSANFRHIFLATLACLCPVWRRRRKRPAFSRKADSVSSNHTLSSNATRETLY

[8] = target: neurotensin-2 receptor (NTR2) (Homo sapiens, UniProt O95665); conditions: read-out: binding affinity; cited from earlier work
Chain of neurotensin-2 receptor (NTR2) (O95665 whole entry, species assumed): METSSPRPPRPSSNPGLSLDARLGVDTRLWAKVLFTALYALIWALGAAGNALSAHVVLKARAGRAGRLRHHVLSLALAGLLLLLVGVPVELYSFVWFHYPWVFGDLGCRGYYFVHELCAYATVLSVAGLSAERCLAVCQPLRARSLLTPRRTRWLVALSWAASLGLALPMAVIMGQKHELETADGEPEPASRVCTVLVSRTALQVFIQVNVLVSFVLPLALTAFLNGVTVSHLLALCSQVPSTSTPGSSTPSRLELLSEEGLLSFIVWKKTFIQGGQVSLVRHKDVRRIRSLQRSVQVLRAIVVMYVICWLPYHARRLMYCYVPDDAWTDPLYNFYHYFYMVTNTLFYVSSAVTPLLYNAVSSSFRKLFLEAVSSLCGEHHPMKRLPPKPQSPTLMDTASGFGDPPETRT

T1 sequence (P30989 whole entry): as the sequence (P30989 whole entry, species assumed) above

Molecule	radioactivity associated with NTR1 [1]	increase in EGF binding [2]	IC50 [3]	Specific NT-Binding (% control) ([4]; 10 μM LOX pathway blocker)	Specific NT-Binding (% control) ([4]; 25 μM LOX pathway blocker)	Specific NT-Binding (% control) ([4]; 75 μM LOX pathway blocker)	Specific Binding (% control) of ^125I-[Nle14]-bombesin ([5]; 12 μM LOX blocker)	Specific Binding (% control) of ^125I-[Nle14]-bombesin ([5]; 60 μM LOX blocker)	NT Binding Efficacy % increase ([6]; LOX blockers)	maximal increase in NT binding to PC3 cells ([6]; as much as / up to, dose-response)	EC50 ([6]; read-out: NT Binding EC50, [agent] giving 100% increase in NT binding)	Kd [7]	Kd [8]
CC(C)c1ccc2c(c1)c(SC(C)(C)C)c(CC(C)(C)C(=O)O)n2Cc1ccc(Cl)cc1 [MK886]	2.7±0.3 fold	65%	100 to 1000 nM	99 ± 3 % control	107 ± 4 % control	97 ± 4 % control	106 ± 5 % control	125 ± 7 % control	210 % increase	≤ 3.0 fold	18 µM	–	–
Trp 11 NT(1-13): peptide identical to NT (1-13) except tryptophan for tyrosine at amino acid 11 (QLYENKPRRPWIL; ends and bridges not checked; UniProt P30990 151-163, looked up, variant Y11W)	–	–	–	–	–	–	–	–	–	–	–	~1 nM	~27 nM

Reference: patent US20060062729A1, “Enhanced ligand binding to neurotensin receptors” (priority 2004, published 2006)
